Laboratory results taken from patent publication US20230346774A1, “METHODS OF STIMULATING AN ANTI-TUMOR RESPONSE USING A SELECTIVE GLUCOCORTICOID RECEPTOR MODULATOR” (Corcept Therapeutics Incorporated, priority 2020, published 2023).

Key:
[1] = system: healthy volunteers; test: Phase I healthy volunteer studies (prednisone challenge); assay type: in vivo, human; conditions: for NLR: healthy volunteers with normal cortisol levels
From the text: (§1) GR is a broad regulator of immunosuppressive transcriptional programs, so we first assessed the transcriptional effects of prednisone in and/or relacorilant in whole blood. […] These three genes are known to play a role in suppressing the cytotoxic T-cell response.

[2] = system: stimulated human PBMC’s; test: Activation of stimulated human PBMCs (PHA or αCD3+IL-12) +/- cortisol or cortisol + relacorilant; assay type: cell-based; conditions: for cytokines and chemokines (including IFNγ, IL-1β, IL-1α, IL-6): PHA or αCD3 stimulation; for cytokines and chemokines (including IFNγ, IL-1β, IL-1α, IL-6) / Expression of CD137 (aka 41-BB) on CD8+ cells: physiological cortisol; for CD3+ cell surface receptors: PHA stimulation; for inflammatory cytokines such as TNF-α: induced by stimulation; for inflammatory cytokines such as TNF-α / Expression of CD137 (aka 41-BB) on CD8+ cells: relacorilant in presence of cortisol; for CD8+ T-cell activation / pro-inflammatory cytokine secretion (TNFα, IFNγ): αCD3+IL-12; for CD8+ T-cell activation: P<0.001; for pro-inflammatory cytokine secretion (TNFα, IFNγ): TNFα P=0.006, IFNγ P<0.05
Procedure: To understand the molecular consequences of GC activity on T-cell activation, the effects of cortisol and relacorilant were assessed on stimulated human PBMC’s. […] Expression of CD137 (aka 41-BB) on CD8+ cells was reduced by cortisol and rescued by relacorilant. […] Expression of CD137 (aka 41-BB) within CD8+ cells was reduced by cortisol and rescued by relacorilant. […] Thus, as shown also in FIG. 4, inflammatory cytokines such as TNF-α were induced by stimulation, suppressed by cortisol, and rescued by relacorilant. […] FIG. 6A and FIG. 6B show, following stimulation by phytohemagglutinin (PHA) (FIG. 6A) or αCD3 (FIG. 6B), suppression of cytokines and chemokines by cortisol and the restoration of cytokine/chemokine levels by relacorilant. (Supernatant IL-12 measurements were excluded from the analysis shown in FIG. 6B since the stimulation included recombinant IL-12.) Physiological levels of cortisol suppressed cytokines and chemokines, and this suppression was reversed by relacorilant.
(§2) Methods: Immune cell abundance and GR expression were assessed by IHC and calculated based on The Cancer Genome Atlas (TCGA) data. Human PBMCs were stimulated with αCD3+IL-12 +/- cortisol or cortisol + relacorilant. EG7 tumor-bearing mice were treated with αPD1 (RMP1-14) ip (intraperitoneally) Q5D (every fifth day) +/- daily relacorilant (QD). Whole blood mRNA was measured via Nanostring, hematology was performed using standard complete blood count assays, and cytokines were assessed by immunoassays in study NCT02762981.

[3] = system: EG7 tumor cells; test: EG7 syngeneic model in OT-1/Rag-/- mice with cortisol in drinking water
Procedure: The suppressive effects of cortisol on CD8+ cytotoxic T-cells, and the ability of relacorilant to promote T-cell activation, were assessed in the EG7 syngeneic mouse model. EG7 tumor cells express ovalbumin, and the model was studied both in WT or OT-1/Rag^-/- mice. The OT-1/Rag^-/- mice only have T-cells expressing a transgenic ovalbumin-specific TCR. […] The combination of PD1 antagonist antibody (RMP1-14) and relacorilant was assessed in the EG7 tumor model.

[4] = system: EG7 tumor cells; test: EG7 tumor model in WT mice, αPD1 (RMP1-14) +/- relacorilant; assay type: in vivo, mouse; conditions: for TNFα levels in terminal sera: sera collected between days 11 and 21
Procedure: The combination of PD1 antagonist antibody (RMP1-14) and relacorilant was assessed in the EG7 tumor model. Most reports have assessed αPD1 effects on EG7 cells in WT mice without added cortisol, so this more established model was used.
as §2

[5] = system: patients with advanced solid tumors; test: Phase I study of relacorilant+nab-paclitaxel in solid tumor patients (NCT02762981); conditions: human, in vivo
Procedure: as §1, §2

[6] = system: patients with Cushing’s disease; test: Phase II study in patients with Cushing’s disease; assay type: in vivo, human
[7] = system: human stimulated PBMCs; test: Restoration of TNF-α production in stimulated PBMCs suppressed by GR agonists; assay type: cell-based; conditions: PBMC, read-out: restoration of TNF-α production, half maximal effect
[8] = biological target: T1, GR (Homo sapiens, UniProt P04150); test: GR binding; conditions: read-out: Half-maximal GR binding
T1 sequence (P04150 1-777): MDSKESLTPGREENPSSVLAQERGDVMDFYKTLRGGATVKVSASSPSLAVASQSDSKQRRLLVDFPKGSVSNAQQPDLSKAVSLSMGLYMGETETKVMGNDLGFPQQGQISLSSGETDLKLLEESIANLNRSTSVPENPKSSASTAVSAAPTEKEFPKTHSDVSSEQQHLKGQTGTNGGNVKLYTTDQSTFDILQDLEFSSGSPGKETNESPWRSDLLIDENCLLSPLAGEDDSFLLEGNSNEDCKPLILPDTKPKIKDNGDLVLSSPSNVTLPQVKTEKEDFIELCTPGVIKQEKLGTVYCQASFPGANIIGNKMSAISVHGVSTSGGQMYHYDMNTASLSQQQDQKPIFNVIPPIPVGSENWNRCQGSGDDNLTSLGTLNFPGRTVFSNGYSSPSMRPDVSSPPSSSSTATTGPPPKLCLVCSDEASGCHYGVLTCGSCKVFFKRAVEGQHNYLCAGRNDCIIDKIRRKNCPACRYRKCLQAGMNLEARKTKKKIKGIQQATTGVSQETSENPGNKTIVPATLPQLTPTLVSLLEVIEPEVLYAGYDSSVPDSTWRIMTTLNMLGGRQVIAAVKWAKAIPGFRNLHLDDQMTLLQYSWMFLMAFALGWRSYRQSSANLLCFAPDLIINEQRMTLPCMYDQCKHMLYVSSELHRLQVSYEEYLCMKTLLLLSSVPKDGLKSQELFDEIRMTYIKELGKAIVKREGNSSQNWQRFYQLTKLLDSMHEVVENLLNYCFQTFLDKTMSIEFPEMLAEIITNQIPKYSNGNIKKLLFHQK

[9] = biological target: T1, GR; test: GR inverse agonism
[10] = system: rat model of corticosterone-induced insulin resistance; test: Rat model of corticosterone-induced insulin resistance; assay type: in vivo; conditions: oral, doses giving systemic exposure similar to phase I studies
[11] = system: E.G7-OVA mouse lymphoma cells; test: Short term (7-day) EG7 pharmacodynamic study in B6 CD45.1 mice; assay type: in vivo
Procedure: A short term (7-day) EG7 pharmacodynamic study was conducted in female B6 CD45.1 mice to assess the effects of relacorilant+ αPD1 on T-cell proliferation and activation. Spleen and portions of tumor from B6 CD45.1 female mice subcutaneously inoculated with E.G7-OVA mouse lymphoma cells and treated with CORT125134 (30 mg/kg, administered p.o. once daily for 7 days) and RMP1-14 (10 mg/kg, administered i.p. on every fifth day for a total of two doses), alone and in combination, were analyzed via flow cytometry. Unlike the previous study, cell and cytokine analyses were synchronized and occurred before differences in tumor volume were detected (FIG. 14). Thus, in this study, changes in tumor volumes cannot influence the cytokine or T-cell measurements. There were no adverse effects of the treatments on clinical signs or body weight changes.
Antigen specific T-cells are key mediators of the anti-tumor immune response. The EG7 model expresses the model antigen ovalbumin. Antigen specific T-cells can be quantified by measuring T-cells that recognize ovalbumin. Cells which bind T-cells markers (such as anti-CD3 and anti-CD8) and bind labeled ovalbumin tetramers are thus considered antigen specific T-cells. Antigen specific T-cells were increased by the combination of relacorilant + αPD1 in the spleen and tumor (FIG. 15). […]

[12] = biological target: T2, progesterone receptor (PR) (Homo sapiens, UniProt P06401); test: PR binding; conditions: binding not observed at these concentrations
T2 sequence (P06401 1-933): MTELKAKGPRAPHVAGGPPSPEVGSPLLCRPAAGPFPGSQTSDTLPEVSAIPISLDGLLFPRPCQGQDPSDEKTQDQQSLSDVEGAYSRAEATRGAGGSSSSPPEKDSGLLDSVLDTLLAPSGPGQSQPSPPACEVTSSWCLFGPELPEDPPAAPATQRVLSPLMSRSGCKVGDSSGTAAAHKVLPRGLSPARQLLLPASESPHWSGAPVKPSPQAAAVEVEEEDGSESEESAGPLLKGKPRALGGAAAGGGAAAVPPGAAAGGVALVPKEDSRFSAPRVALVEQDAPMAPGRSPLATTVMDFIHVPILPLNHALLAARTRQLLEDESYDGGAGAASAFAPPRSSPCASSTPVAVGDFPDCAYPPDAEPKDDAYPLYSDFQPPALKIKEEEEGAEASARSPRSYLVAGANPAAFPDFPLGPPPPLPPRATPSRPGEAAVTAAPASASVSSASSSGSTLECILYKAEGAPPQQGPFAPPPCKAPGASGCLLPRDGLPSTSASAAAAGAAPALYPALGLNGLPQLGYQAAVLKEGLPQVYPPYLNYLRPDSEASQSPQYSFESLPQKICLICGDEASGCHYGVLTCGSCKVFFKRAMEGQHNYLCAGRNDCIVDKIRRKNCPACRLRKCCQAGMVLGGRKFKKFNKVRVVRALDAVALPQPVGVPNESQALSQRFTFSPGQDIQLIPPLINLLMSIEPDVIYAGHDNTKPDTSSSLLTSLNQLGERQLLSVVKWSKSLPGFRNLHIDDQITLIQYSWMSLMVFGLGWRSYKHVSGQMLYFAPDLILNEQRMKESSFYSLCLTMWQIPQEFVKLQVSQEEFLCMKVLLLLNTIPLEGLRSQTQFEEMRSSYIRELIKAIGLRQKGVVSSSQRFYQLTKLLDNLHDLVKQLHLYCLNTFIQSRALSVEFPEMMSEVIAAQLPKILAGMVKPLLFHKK

## C[C@]12C=CC(=O)C=C1CC[C@@H]1[C@@H]2C(=O)C[C@@]2(C)[C@H]1CC[C@]2(O)C(=O)CO [prednisone, reference compound]
[1]; 25 mg dose, 4 hours post dose
  transcriptional effect in whole blood: large transcriptional effect
[1]
  NLR: rapid an acute increase

## cortisol
[2]; 400 nM cortisol, PHA or αCD3+IL-12
  phenotypic effects of stimulation: potently suppressed nearly every phenotypic effect of stimulation
[2]
  cytokines and chemokines (including IFNγ, IL-1β, IL-1α, IL-6): suppressed
  CD3+ cell surface receptors: suppression
  inflammatory cytokines such as TNF-α: suppressed
  Expression of CD137 (aka 41-BB) on CD8+ cells: reduced
  CD8+ T-cell activation: inhibited
  pro-inflammatory cytokine secretion (TNFα, IFNγ): inhibited
[3]; OT-1/Rag-/- mice
  mice with measurable tumors by day 10: All mice
  tumor growth: rapid tumor growth
[3]; OT-1/Rag-/- mice given cortisol +/- relacorilant
  histologically confirmed complete remissions: none
[3]; OT-1/Rag-/- mice, 0/5 in controls
  Premature deaths: 2/5
[4]; cortisol added to relacorilant treatment
  tumor growth on excess cortisol administration: restored tumor growth
[4]; cortisol in drinking water of wild type (WT) mice
  tumor control or growth: no effect on tumor control or growth
[4]
  TNFα levels in terminal sera: suppressed

## Cn1cc(S(=O)(=O)N2CCC3=Cc4c(cnn4-c4ccc(F)cc4)C[C@]3(C(=O)c3cc(C(F)(F)F)ccn3)C2)cn1 [relacorilant, (R)-(1-(4-fluorophenyl)-6-((1-methyl-1H-pyrazol-4-yl)sulfonyl)-4,4a,5,6,7,8-hexahydro-1H-pyrazolo[3,4-g]isoquinolin-4a-yl)(4-(trifluoromethyl)pyridin-2-yl)methanone]
[1]; healthy volunteers
  tolerability: demonstrated tolerability
[1]
  NLR: does not affect NLR
[1]; prednisone challenge
  GR agonist induction of FKBP5 mRNA in whole blood: reversed
  GR agonist suppression of eosinophil abundance in whole blood: reversed
[1]; relacorilant co-dosed with prednisone
  prednisone-induced increase in the NLR: reversed
[2]
  cytokines and chemokines (including IFNγ, IL-1β, IL-1α, IL-6): reversed
  CD3+ cell surface receptors: restoration
  inflammatory cytokines such as TNF-α: rescued
  Expression of CD137 (aka 41-BB) on CD8+ cells: rescued
  CD8+ T-cell activation: restored
  pro-inflammatory cytokine secretion (TNFα, IFNγ): restored
[5]
  NLR in cancer patients with elevated baseline NLR: lowers
[6]
  effects of excess cortisol on hypertension and insulin resistance: demonstrated the ability to reverse
[7]
  EC50: 9 nM
[8]
  IC50: 0.15 nM
[9]
  GR inverse agonism: not observed
[10]
  glucose and insulin: normalized glucose and insulin
[11]; 7 days
  PD1 expression in splenic CD8 T-cells: sufficient to induce
[11]; vs Vehicle Control
  PD-1+ as % CD8+ cells in spleens: significant (p≤0.05) increase
[12]
  IC50: > 1000 nM
[4]; P<0.002
  circulating IL-10: decreased
[4]; P=0.007
  αPD1 efficacy: increased
[4]; WT mice without added cortisol
  effect on tumor growth: no significant effect
[4]
  TNFα levels in terminal sera: increased
